# Assay results: US20220347309A1, “PYRROLOBENZODIAZEPINE RESISTANCE” (ADC THERAPEUTICS SA, priority 2018, published 2022)
# pIC50: −log10 of the molar value.
# Legend:
# Karpas-299 wt cells [1] = test: DNA interstrand cross-linking, single cell gel electrophoresis (comet) assay; type: cell-based, human; settings: 130 μM ADCT-301 or 280 μM SG3199 (figure legends: pM) for 2 hours, then 24 hours
# Protocol: (§1) The formation of inter-strand cross-links (ICLs) by either ADCT-301 or SG3199 was measured using a modification of the single cell gel electrophoresis (comet) assay (Spanswick V J, Hartley J M, Hartley J A. Measurement of DNA interstrand crosslinking in individual cells using the Single Cell Gel Electrophoresis (Comet) assay. Methods Mol Biol. 613, 267-82 (2010)). Cells were treated with […] ADCT-301 or […] SG3199 for 2 hours, then washed and incubated for 24 hours under normal cell culture conditions. All cells were irradiated with 18 Gy (5 Gy/min for 3.6 min). Comet slides were reviewed under a 20× objective on an epifluorescence microscope equipped with: Hg arc lamp; 580 nm dichroic mirror; and 535 nm excitation and 645 nm emission filters suitable for visualising of propidium iodide staining with a minimum of 50 Comet images acquired per treatment condition. The Olive Tail Moment (OTM) was determined as the product of the tail length and the fraction of total DNA in the tail as recorded by Komet 6 software (Andor Technology, Belfast, UK) and the percentage reduction in OTM calculated according to the formula:
# (§2) % decrease in tail moment=[1−(TMdi−TMcu)/(TMci−TMcu)]*100 • [TMdi=Tail Moment drug irradiated; TMcu=TM control un-irradiated; TMci=TM control irradiated]
# (§3) The results are shown in FIG. 18 for the ADCR line and FIG. 19 for the PBDR line.
# Karpas ADCr cells [2] = test: DNA interstrand cross-linking, comet assay; type: cell-based, human; settings: 130 μM ADCT-301 or 280 μM SG3199 (figure legends: pM) for 2 hours, then 24 hours
# Protocol: as §1, §2, §3
# Karpas PBDr cells [3] = test: DNA interstrand cross-linking, comet assay; type: cell-based, human; settings: 130 μM ADCT-301 or 280 μM SG3199 (figure legends: pM) for 2 hours, then 24 hours
# Protocol: as §1, §2, §3
# [4] = system: Karpas ADCr cells (ADCT-301 acquired resistant Karpas-299); test: MTS in vitro cytotoxicity, 96 h continuous exposure
# Protocol: (§4) To generate a resistant population to either ADCT-301 or SG3199, human anaplastic large cell lymphoma Karpas-299 cells (expressing CD25) were incubated with an approximate IC50 dose of the drug for 96 hours. The cells were then washed and returned to fresh medium until normal cell growth was recovered. This process was repeated until a measurable and stable loss in cytotoxic efficacy was established using the MTS assay.
# (§5) To measure the in vitro cytotoxicity with the MTS assay, cells were incubated with a 10-fold dilution range of ADCT-301 or SG3199, and incubated with continuous exposure for 96 hours (at least three cell doubling times under normal cell culture conditions). After incubation the […] AQueous One Solution Cell Proliferation Assay (MTS) was used to measure growth inhibition, by adding 20 μl reagent to the cells and incubating for 3-4 hours, then reading the absorbance at 492 nm. Mean % growth of the ADC or PBD treated cells was calculated relative to an untreated control.
# (§6) To measure the cross-resistance of the Karpas ADCR cells to the SG3199 PBD warhead, and the PBDR cells to ADCT-301, the in vitro cytotoxicity assay was carried out as described above, treating the cells with the opposite drug molecule to the one with which they were generated.
# (§7) To measure the cross-resistance of the Karpas ADCR and PBDR cells to the PBD dimer warhead SG2000, the in vitro cytotoxicity (MTS) assay was carried out as previously described in Example 2.
# [5] = system: Karpas PBDr cells (SG3199 acquired resistant Karpas-299); test: as above
# Protocol: as §4, §5, §6, §7
# Karpas-299 wt cells [6] = test: Single dose 2-hour exposure cytotoxicity (MTS); type: cell-based, human; settings: 130 pM ADCT-301 or 280 pM SG3199 for 2 hours, then 96 hours, vs untreated control
# Karpas ADCr cells [7] = test: Single dose 2-hour exposure cytotoxicity (MTS); type: cell-based, human; settings: 130 pM ADCT-301 or 280 μM SG3199 (legend: pM) for 2 hours, then 96 hours
# Protocol: (§8) To investigate growth inhibition under the same conditions under which DNA ICL formation was measured, Karpas-ADCR cells were treated with 130 pM ADCT-301, and Karpas-PBDR cells treated with 280 pM SG3199 for 2 hours, then washed and incubated for 96 hours under normal cell culture conditions. The MTS assay and calculation of % growth compared to the untreated control was carried out as previously described.
# (§9) To investigate whether the cross-resistance in ICL formation observed in the Karpas resistant cell lines also correlates with growth inhibition at this dose, ADCR cells were treated with […] SG3199, and PBDR cells treated with […] ADCT-301 for 2 hours, then washed and incubated for 96 hours under normal cell culture conditions. The MTS assay and calculation of % growth compared to the untreated control was carried out as previously described. The results are shown in FIG. 22 for the ADCR line and FIG. 23 for the PBDR line.
# Karpas PBDr cells [8] = test: Single dose 2-hour exposure cytotoxicity (MTS); type: cell-based, human; settings: 130 μM ADCT-301 (legend: pM) or 280 pM SG3199 for 2 hours, then 96 hours
# Protocol: as §8, §9
# NCI-N87 ADCr cells = test: DNA interstrand cross-linking, comet assay; type: cell-based, human; settings: 1 nM ADCT-502 or 1.7 nM SG3199 for 2 hours, then 24 hours
# Protocol: (§10) The formation of inter-strand cross-links (ICLs) by either ADCT-502 or SG3199 was measured using the modification of the single cell gel electrophoresis (comet) assay. Cells were treated with 1 nM ADCT-502 or 1.7 nM SG3199 for 2 hours, then washed and incubated for 24 hours under normal cell culture conditions. All cells were irradiated with 18 Gy (5 Gy/min for 3.6 min). ICL formation was quantitated by measuring Olive tail moment (OTM) using the Komet 4 software, and the percentage reduction in OTM compared to an untreated irradiated control.
# (§11) The results are shown in FIG. 20 for the ADCR line and FIG. 21 for the PBDR line.
# NCI-N87 wt cells [9] = test: DNA interstrand cross-linking, comet assay; type: cell-based, human; settings: 1 nM ADCT-502 or 1.7 nM SG3199 for 2 hours, then 24 hours
# Protocol: as §10, §11
# NCI-N87 PBDr cells = test: DNA interstrand cross-linking, comet assay; type: cell-based, human; settings: 1 nM ADCT-502 or 1.7 nM SG3199 for 2 hours, then 24 hours
# Protocol: as §10, §11
# NCI-N87 wt cells [10] = test: MTS in vitro cytotoxicity, 144 h continuous exposure; type: cell-based, human; settings: NCI-N87 wt, 144 h continuous exposure, mean; read-out: IC50
# Protocol: (§12) To generate a resistant population to either ADCT-502 or SG3199, human gastric cancer NCI-N87 cells (expressing HER2) were incubated with an approximate IC50 dose of the drug for 144 hours. The cells were then washed and returned to fresh medium until normal cell growth was recovered. This process was repeated until a measurable and stable loss in cytotoxic efficacy was established using the MTS assay.
# (§13) To measure the in vitro cytotoxicity with the MTS assay, cells were incubated with a 10-fold dilution range of ADCT-502 or SG3199, and incubated with continuous exposure for 144 hours (at least three cell doubling times under normal cell culture conditions). After incubation the CellTiter 960 AQueous One Solution Cell Proliferation Assay (MTS) was used to measure growth inhibition, by adding 20 μl reagent to the cells and incubating for 3-4 hours, then reading the absorbance at 492 nm. Mean % growth of the ADC or PBD treated cells was calculated relative to an untreated control.
# (§14) To measure the cross-resistance of the NCI-N87 ADCR cells to the SG3199 PBD warhead, and the PBDR cells to ADCT-502, the in vitro cytotoxicity assay was carried out as described above, treating the cells with the opposite drug molecule to the one with which they were generated.
# [11] = system: NCI-N87 ADCr cells (ADCT-502 acquired resistant); test: as above; type: cell-based, human
# Protocol: as §12, §13, §14
# NCI-N87 wt cells [12] = test: Single dose 2-hour exposure cytotoxicity (MTS); type: cell-based, human; settings: single dose for 2 hours, then 144 hours, vs untreated control
smiles,measurement,setting,value
COc1cc2c(cc1OCCCCCOc1cc3c(cc1OC)C(=O)N1C=C(C)C[C@H]1C=N3)N=C[C@@H]1CC(C)=CN1C2=O [SG3199],% red. OTM (mean % reduction in Olive Tail Moment),Karpas-299 wt cells [1],55.5%
same,% red. OTM,Karpas ADCr cells [2],7.2%
same,% red. OTM,Karpas PBDr cells [3],25.7%
same,fold resistance compared to wildtype,[4]; Karpas ADCr vs Karpas wt IC50,4.4 fold
same,IC50,"[4]; read-out: IC50 pM, Karpas ADCr, 96 h continuous exposure, mean",306 pM
same,fold resistance compared to wildtype,[5]; Karpas PBDr vs Karpas wt IC50,2.9 fold
same,IC50,"[5]; read-out: IC50 pM, Karpas PBDr, 96 h continuous exposure, mean",205 pM
same,2 hr mean % growth,Karpas-299 wt cells [6],33.8%
same,2 hr mean % growth,Karpas ADCr cells [7],86.3%
same,2 hr mean % growth,Karpas PBDr cells [8],78.5%
same,% red. OTM,NCI-N87 ADCr cells,24%
same,% red. OTM,NCI-N87 wt cells [9],51.0%
same,% red. OTM,NCI-N87 PBDr cells,30.7%
same,pIC50,NCI-N87 wt cells [10],10.80
same,fold resistance compared to wildtype,[11]; NCI-N87 ADCr vs NCI-N87 wt IC50,3.8 fold
same,pIC50,"[11]; NCI-N87 ADCr, 144 h continuous exposure, mean, read-out: IC50",10.22
same,2 hr mean % growth,NCI-N87 wt cells [12],29.0%
